Target: DAT sites (Mus musculus, UniProt Q61327)
Assay: Dual isotope experiment in lesioned mice, [125I]IPT
[1] = lesioned Mouse 1, 30 min post-injection
[2] = lesioned Mouse 2, 30 min post-injection
[3] = lesioned Mouse 3, 30 min post-injection
[4] = lesioned Mouse 4, 30 min post-injection

Chain of DAT sites (Q61327 whole entry): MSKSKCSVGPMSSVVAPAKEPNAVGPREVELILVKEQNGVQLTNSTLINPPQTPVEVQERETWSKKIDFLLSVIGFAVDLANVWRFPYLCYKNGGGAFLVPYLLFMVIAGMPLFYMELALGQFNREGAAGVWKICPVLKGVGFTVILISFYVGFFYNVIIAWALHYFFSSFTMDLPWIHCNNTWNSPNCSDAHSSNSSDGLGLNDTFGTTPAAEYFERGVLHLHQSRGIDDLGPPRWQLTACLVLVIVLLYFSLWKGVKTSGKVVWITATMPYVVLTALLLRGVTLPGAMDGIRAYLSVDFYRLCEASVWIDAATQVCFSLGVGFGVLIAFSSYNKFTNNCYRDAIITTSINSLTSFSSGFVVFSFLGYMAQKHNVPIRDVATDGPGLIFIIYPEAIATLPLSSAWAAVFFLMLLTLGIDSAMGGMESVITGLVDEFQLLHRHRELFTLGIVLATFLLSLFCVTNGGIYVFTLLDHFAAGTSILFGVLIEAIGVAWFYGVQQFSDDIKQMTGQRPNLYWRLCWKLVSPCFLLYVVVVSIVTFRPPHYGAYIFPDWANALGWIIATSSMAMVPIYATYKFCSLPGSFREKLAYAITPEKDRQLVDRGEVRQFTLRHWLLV
Source text: Thirty minutes after injection, the mice were sacrificed and the brains removed. Different regions corresponding to striatum (ST), hippocampus (HP), cerebellum (CB), and cortex (CX) were dissected. In particular, the lesioned region was separated from non-lesioned area of the striatal tissues. Samples were counted in a gamma counter with two different window settings for F-18 and I-125, respectively, to obtain the regional distribution of each tracer.
To measure the degree of lesion, a dual-isotope experiment comparing the striatal uptakes in lesioned vs. unlesioned sites using [^18F]FP-DTBZ was performed. A marker [^125I]IPT (selective for dopamine transporters) was injected simultaneously.

`COC(=O)C1C(c2ccc(Cl)cc2)CC2CCC1N2CC=CI` (stereo not drawn) [[^125I]IPT, N-(3′-iodopropen-2′-yl)-2-beta-carbomethoxy-3-beta-(4-chlorophenyl)tropane] was tested, and the “% StrL/StrN” value [1] was 32.6%, the “Regional brain distribution Cerebellum (CB)” value [1] was 0.96 % dose/g and the “Regional brain distribution Cortex” value [1] was 0.69 % dose/g. For the same molecule, the “Regional brain distribution Hippocampus” value [1] was 0.87 % dose/g, the “Regional brain distribution Hypothalamus” value [1] was 1.28 % dose/g and the “Regional brain distribution Remainder” value [1] was 1.34 % dose/g. The “ratio vs. CB, Cerebellum (CB)” value [1] was 1.00, the “ratio vs. CB, Cortex” value [1] was 0.72 and the “ratio vs. CB, Hippocampus” value [1] was 0.91. The “ratio vs. CB, Hypothalamus” value [1] was 1.34, the “ratio vs. CB, Remainder” value [1] was 1.40 and the “ratio vs. CB, Stratum N” value [1] was 9.63. The “ratio vs. CB, Striatum L” value [1] was 3.14, the “% StrL/StrN” value [2] was 55.7% and the “Regional brain distribution Cerebellum (CB)” value [2] was 0.77 % dose/g. For the same molecule, the “Regional brain distribution Cortex” value [2] was 0.62 % dose/g, the “Regional brain distribution Hippocampus” value [2] was 0.70 % dose/g and the “Regional brain distribution Hypothalamus” value [2] was 1.22 % dose/g. For the same molecule, the “Regional brain distribution Remainder” value [2] was 1.16 % dose/g, the “ratio vs. CB, Cerebellum (CB)” value [2] was 1.00 and the “ratio vs. CB, Cortex” value [2] was 0.80. The “ratio vs. CB, Hippocampus” value [2] was 0.90, the “ratio vs. CB, Hypothalamus” value [2] was 1.58 and the “ratio vs. CB, Remainder” value [2] was 1.49. For the same molecule, the “ratio vs. CB, Stratum N” value [2] was 8.17, the “ratio vs. CB, Striatum L” value [2] was 4.55 and the “% StrL/StrN” value [3] was 52.3%. For the same molecule, the “Regional brain distribution Cerebellum (CB)” value [3] was 0.81 % dose/g, the “Regional brain distribution Cortex” value [3] was 0.66 % dose/g and the “Regional brain distribution Hippocampus” value [3] was 0.81 % dose/g. The “Regional brain distribution Hypothalamus” value [3] was 1.42 % dose/g, the “Regional brain distribution Remainder” value [3] was 1.57 % dose/g and the “ratio vs. CB, Cerebellum (CB)” value [3] was 1.00. For the same molecule, the “ratio vs. CB, Cortex” value [3] was 0.81, the “ratio vs. CB, Hippocampus” value [3] was 1.00 and the “ratio vs. CB, Hypothalamus” value [3] was 1.76. For the same molecule, the “ratio vs. CB, Remainder” value [3] was 1.95, the “ratio vs. CB, Stratum N” value [3] was 11.3 and the “ratio vs. CB, Striatum L” value [3] was 5.90. For the same molecule, the “% StrL/StrN” value [4] was 88.7%, the “Regional brain distribution Cerebellum (CB)” value [4] was 0.76 % dose/g and the “Regional brain distribution Cortex” value [4] was 0.87 % dose/g. The “Regional brain distribution Hippocampus” value [4] was 0.62 % dose/g, the “Regional brain distribution Hypothalamus” value [4] was 0.99 % dose/g and the “Regional brain distribution Remainder” value [4] was 1.16 % dose/g. The “ratio vs. CB, Cerebellum (CB)” value [4] was 1.00, the “ratio vs. CB, Cortex” value [4] was 1.15 and the “ratio vs. CB, Hippocampus” value [4] was 0.81. For the same molecule, the “ratio vs. CB, Hypothalamus” value [4] was 1.31, the “ratio vs. CB, Remainder” value [4] was 1.53 and the “ratio vs. CB, Stratum N” value [4] was 10.2. For the same molecule, the “ratio vs. CB, Striatum L” value [4] was 9.07.

Source: US8562949B2, “Radiolabeled dihydrotetrabenazine derivatives and their use as imaging agents” (The Trustees of the University of Pennsylvania, priority 2006, dated 2013)
